We go through nine compounds from patent US7205332B2, “Deoxoartemisinin analogs, process for their preparation, and anticancer agent comprising them” (Industry-Academic Cooperation Foundation, Yonsei University, priority 2003, dated 2007).

Converted amounts (≈) assume the structure as drawn. Read-outs that look alike come from different tables or passages of the source.

One may read the IC50 as the point on the concentration scale where inhibition reaches its midpoint. The solubility is how much of the substance goes into solution per volume. A high value points to much dissolved substance. A word on the melting point: it is the temperature of the solid-liquid transition.

In data set [1] the test system is P388: mouse fibroblast leukemia cell. Nature of the data set: micro-culture tetrazolium assay, in vitro cytotoxicity on P388. As to conditions: for anticancer activity, fold higher than that of mitomycin: versus mitomycin. The format is cell-based.
The next data set relates to EL4: mouse thymoma cell. The experiment in a line: micro-culture tetrazolium assay, in vitro cytotoxicity on EL4. The data set is classed as cell-based. The settings on record: for IC50: read-out: In vitro cytotoxicities (IC50) EL4.
The subject of data set [2] is Bewo: human choriocarcinoma cell. The experiment in a line: micro-culture tetrazolium assay, in vitro cytotoxicity on Bewo. The settings on record: for IC50: read-out: In vitro cytotoxicities (IC50) Bewo. The format is cell-based.
Data set [3] relates to HT-29: human colorectal adenocarcinoma cell. The experiment in a line: micro-culture tetrazolium assay, in vitro cytotoxicity on HT-29. As to conditions: for IC50: read-out: In vitro cytotoxicities (IC50) HT-29. The data set is classed as cell-based. The procedure:
(§1) The anticancer activities of the deoxoartemisinin dimer and trimer of the present invention were measured by a known micro-culture tetrazolium assay (see Carmichel, J.; DeGraff, W. G; Gazdar, A. F.; Minna, J. D.; Mitchell, J. B., Evaluation of a Tetrazolium-based Semiautomated Colorimetric Assay: Assessment of Chemosensitivity testing, Cancer Res., 1987, 47, 936–42).

Data set [4] concerns MCF7: human breast carcinoma cell. The experiment in a line: micro-culture tetrazolium assay, in vitro cytotoxicity on MCF7. The data set is classed as cell-based.
Data set [5] relates to SKOV3: human ovarian carcinoma cell. The experiment in a line: micro-culture tetrazolium assay, in vitro cytotoxicity on SKOV3. The format is cell-based. As to conditions: SK-OV-3, read-out: In vitro cytotoxicities (IC50) SKOV3. As to the method:
as §1

Another data set can be described thus: water solubility. The data set is classed as physicochemical.
Data set [6] deals with PANC-1: human pancreatic cancer cell. Nature of the data set: micro-culture tetrazolium assay, in vitro cytotoxicity on PANC-1. The data set is classed as cell-based. As to conditions: for IC50: PANC-1 human pancreatic cancer cell, read-out: In vitro cytotoxicities (IC50) PANC-1. The procedure:
as §1

In data set [7] the test system is A549: human lung cancer cell. Nature of the data set: micro-culture tetrazolium assay, in vitro cytotoxicity on A549. The data set is classed as cell-based.
The mark [8] stands for this setting: P388 mouse fibroblast leukemia cell.
Where [9] appears, read: Bewo human choriocarcinoma cell.
Where [10] appears, read: MCF7 human breast carcinoma cell.
Setting [11] is: P388 mouse fibroblast leukemia cell, read-out: In vitro cytotoxicities (IC50) P388.
The mark [12] stands for this setting: MCF7 human breast carcinoma cell, read-out: In vitro cytotoxicities (IC50) MCF7.

“12-(4′-aminobutyl)deoxoartemisinin dimer [Compound (IVc′)]”: the “In vitro cytotoxicities (IC50) P388” value in [1] (setting [8]) is over 20 µg/mL. Also, the “In vitro cytotoxicities (IC50) EL4” value in the data set on EL4: mouse thymoma cell (EL4 mouse thymoma cell) was over 20 µg/mL. For the same compound, in data set [2] (setting [9]), the “In vitro cytotoxicities (IC50) Bewo” value was over 20 µg/mL. For the same compound, in [3], the “In vitro cytotoxicities (IC50) HT-29” value was 20.20 µg/mL. The “In vitro cytotoxicities (IC50) MCF7” value in [4] (setting [10]) is over 20 µg/mL.

Consider `COc1cccc2c1C(=O)c1c(O)c3c(c(O)c1C2=O)C[C@@](O)(C(=O)CO)C[C@@H]3O[C@H]1C[C@H](N)[C@H](O)[C@H](C)O1` [Adriamycin, reference compound], for which the IC50 in data set [1] (setting [11]) is 0.39 µg/mL (≈ 0.718 µM); in the data set with EL4: mouse thymoma cell (EL4 mouse thymoma cell), 0.67 µg/mL (≈ 1.23 µM); in data set [2] (setting [9]), 6.24 µg/mL (≈ 11.5 µM); in data set [3] it was 0.1 µg/mL (≈ 0.184 µM); in data set [4] (setting [12]) it was 0.12 µg/mL (≈ 0.221 µM).

Consider `C[C@H]1[C@@H](CCSCC[C@H]2O[C@@H]3O[C@@]4(C)CC[C@H]5[C@H](C)CC[C@@H]([C@H]2C)[C@@]35OO4)O[C@@H]2O[C@@]3(C)CC[C@H]4[C@H](C)CC[C@@H]1[C@@]24OO3` [Compound (IVa1), 12-(2′-ethylsulfide)deoxoartemisinin dimer], for which the “anticancer activity, fold higher than that of mitomycin” value in data set [1] (P388) is on record as “at least 4 fold”. For the same compound, the half-inhibitory concentration (IC50) in data set [1] (setting [11]) was 0.4 µg/mL (≈ 0.642 µM); in the data set on EL4: mouse thymoma cell (EL4 mouse thymoma cell), 0.23 µg/mL (≈ 0.369 µM); in [2] (setting [9]) it was 14.2 µg/mL (≈ 22.8 µM); in data set [3] it was 0.24 µg/mL (≈ 0.385 µM); in data set [4] (setting [12]) it was 0.017 µg/mL (≈ 0.0273 µM).

In the case of `CC1CCC2C(C)C(CCS(=O)(=O)CCC3OC4OC5(C)CCC6C(C)CCC(C3C)C46OO5)OC3OC4(C)CCC1C32OO4` (centres unmarked) [Compound (IVa2), 12-(2′-sulfonylethyl)deoxoartemisinin dimer], the “In vitro cytotoxicities (IC50) P388” value in data set [1] (setting [8]) was found to be 5.60 µg/mL. In the data set on EL4: mouse thymoma cell (EL4 mouse thymoma cell), the “In vitro cytotoxicities (IC50) EL4” value was 0.54 µg/mL. Moreover, the “In vitro cytotoxicities (IC50) Bewo” value in data set [2] (setting [9]) came to 1.04 µg/mL. For the same compound, in data set [2] (Bewo, versus taxol and adriamycin), the “anticancer activity, fold higher than that of taxol and adriamycin” value was “at least 6 fold”. The “In vitro cytotoxicities (IC50) HT-29” value in data set [3] was determined as 0.38 µg/mL. For the same compound, the “In vitro cytotoxicities (IC50) MCF7” value in data set [4] (setting [10]) is 0.025 µg/mL.

As for `C[C@H]1[C@@H](CCNC(=O)CC[C@H]2O[C@@H]3O[C@@]4(C)CC[C@H]5[C@H](C)CC[C@@H]([C@H]2C)[C@@]35OO4)O[C@@H]2O[C@@]3(C)CC[C@H]4[C@H](C)CC[C@@H]1[C@@]24OO3` [Compound (IVc), 12-(2′-amidethyl)deoxoartemisinin Dimer], the half-inhibitory concentration (IC50) came to 10.4 µg/mL (≈ 16.4 µM) in data set [1] (setting [11]); 6.29 µg/mL (≈ 9.92 µM) in the data set with EL4: mouse thymoma cell (EL4 mouse thymoma cell); 7.5 µg/mL (≈ 11.8 µM) in data set [2] (setting [9]); 0.69 µg/mL (≈ 1.09 µM) in data set [3]; 12.6 µg/mL (≈ 19.9 µM) in data set [5]; 0.005 µg/mL (≈ 0.00789 µM) in data set [4] (setting [12]). Also, the “anticancer activity, fold higher than that of adriamycin” value in [4] (MCF7, versus adriamycin) is reported as “at least 24 fold”. Further, the “anticancer activity, fold higher than that of mitomycin” value in [4] (MCF7, versus mitomycin) was “at least 200 fold”.

In the case of `C[C@H]1[C@@H](CCNC(=O)CC[C@H](N)C(=O)NCC[C@H]2O[C@@H]3O[C@@]4(C)CC[C@H]5[C@H](C)CC[C@@H]([C@H]2C)[C@@]35OO4)O[C@@H]2O[C@@]3(C)CC[C@H]4[C@H](C)CC[C@@H]1[C@@]24OO3` [Compound (IVd), 12-[2′-(N-glutamic)-α,β-amide]deoxoartemisinin dimer], the IC50 is 15.6 µg/mL (≈ 21.3 µM) in data set [1] (setting [11]); 16.5 µg/mL (≈ 22.5 µM) with EL4: mouse thymoma cell (EL4 mouse thymoma cell); over 20 µg/mL in data set [2] (setting [9]); 6.5 µg/mL (≈ 8.86 µM) in data set [3]; 15.3 µg/mL (≈ 20.8 µM) in [4] (setting [12]). For the same compound, the “water solubility relative to artemisinin” value in the data set “water solubility” (compared with artemisinin) was “five times more water soluble”. Further, the solubility in “water solubility” (water) was found to be 5210 µg/mL (≈ 7100 µM).

As to `C[C@H]1[C@@H](CCNC(=O)CC[C@H](NC(=O)CC[C@H]2O[C@@H]3O[C@]4(C)CC[C@H]5[C@H](C)CC[C@@H]([C@H]2C)[C@@]35OO4)C(=O)NCC[C@H]2O[C@@H]3O[C@]4(C)CC[C@H]5[C@H](C)CC[C@@H]([C@H]2C)[C@@]35OO4)O[C@@H]2O[C@]3(C)CC[C@H]4[C@H](C)CC[C@@H]1[C@@]24OO3` [Compound (IVe), deoxoartemisinin trimer], the melting point worked out at 138 °C. Also, in [1] (P388, versus adriamycin), the “anticancer activity, fold higher than that of adriamycin” value is on record as “at least 3 fold”. In data set [1] (P388), the “anticancer activity, fold higher than that of mitomycin” value is “at least 12 fold”. In data set [1] (P388, versus taxol), the “anticancer activity, fold higher than that of taxol” value is recorded as “at least 20 fold”. The IC50 in [1] (setting [11]) was found to be 0.12 µg/mL (≈ 0.114 µM). For the same compound, the IC50 in the data set on EL4: mouse thymoma cell (EL4 mouse thymoma cell) is 1.07 µg/mL (≈ 1.01 µM). The IC50 in data set [2] (setting [9]) was 18.3 µg/mL (≈ 17.3 µM). Besides, in data set [3], the IC50 is 0.09 µg/mL (≈ 0.0852 µM). In addition, in data set [6], the IC50 is 2.69 µg/mL (≈ 2.55 µM). Moreover, the “anticancer activity, fold higher than that of taxol” value in [6] (human pancreatic cancer cell, versus taxol) is given as “at least 2 fold”. Also, the 50% inhibitory concentration (IC50) in [5] was determined as 11.2 µg/mL (≈ 10.6 µM). Further, the concentration for half-maximal inhibition (IC50) in [4] (setting [12]) came out at 0.017 µg/mL (≈ 0.0161 µM). Besides, the 50% inhibitory concentration (IC50) in data set [7] (A549 human lung cancer cell, read-out: In vitro cytotoxicities (IC50) A549) was 2.45 µg/mL (≈ 2.32 µM).

Regarding `CO[C@@]12[C@H](COC(N)=O)C3=C(C(=O)C(C)=C(N)C3=O)N1C[C@@H]1N[C@@H]12` [Mitomycin, reference compound], the concentration for half-maximal inhibition (IC50) turned out to be 1.5 µg/mL (≈ 4.49 µM) in data set [1] (Mus musculus, P388, read-out: In vitro cytotoxicities (IC50) P388); 3.94 µg/mL (≈ 11.8 µM) in the data set with EL4: mouse thymoma cell (Mus musculus); 0.85 µg/mL (≈ 2.54 µM) in [2] (Homo sapiens, BeWo); 0.02 µg/mL (≈ 0.0598 µM) in data set [3]; 0.93 µg/mL (≈ 2.78 µM) in data set [4] (Homo sapiens, MCF7, read-out: In vitro cytotoxicities (IC50) MCF7); 1.85 µg/mL (≈ 5.53 µM) in [7] (Homo sapiens, A549, read-out: In vitro cytotoxicities (IC50) A549).

On to `CC(=O)O[C@H]1C(=O)[C@@]2(C)[C@H]([C@H](OC(=O)c3ccccc3)[C@]3(O)C[C@H](OC(=O)[C@H](O)[C@@H](NC(=O)c4ccccc4)c4ccccc4)C(C)=C1C3(C)C)[C@]1(OC(C)=O)CO[C@@H]1C[C@@H]2O` [Taxol, reference compound], for which the concentration for half-maximal inhibition (IC50) in data set [1] (setting [11]) came out at 2.27 µg/mL (≈ 2.66 µM); with EL4: mouse thymoma cell (EL4 mouse thymoma cell), 1.34 µg/mL (≈ 1.57 µM); in [2] (setting [9]), 7.39 µg/mL (≈ 8.65 µM); in data set [3], 0.01 µg/mL (≈ 0.0117 µM); in data set [6], 5.76 µg/mL (≈ 6.75 µM); in [5], 12.3 µg/mL (≈ 14.4 µM).
